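Each compound was tested at five concentrations against cells in 96-well plates for 48 hours. GI50 = concentration required for 50% inhibition of growth.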 Active and inactive are the calls of the source. Cut-off read from the data, not from the text of the source: active = GI50 up to about 1.1 µM and inactive = higher.
Assays:
Assay in all cases: growth of human tumour cells (NCI), 48 h
[1] = tested on: 786-0
[2] = tested on: SR
[3] = tested on: ACHN
[4] = tested on: COLO 205
[5] = tested on: MCF7
[6] = tested on: SF-295
[7] = tested on: SW-620
[8] = tested on: HOP-62
[9] = tested on: T47D
[10] = tested on: A498
[11] = tested on: SF-268
[12] = tested on: SF-539
[13] = tested on: SNB-75
[14] = tested on: HL-60
[15] = tested on: OVCAR-3
[16] = tested on: MOLT-4
[17] = tested on: UO-31
[18] = tested on: PC-3
[19] = tested on: MDA-MB-231
[20] = tested on: KM12

Row | SMILES | GI50 [1] | GI50 [2] | GI50 [3] | GI50 [4] | GI50 [5] | GI50 [6] | GI50 [7] | GI50 [8] | GI50 [9] | GI50 [10] | GI50 [11] | GI50 [12] | GI50 [13] | GI50 [14] | GI50 [15] | GI50 [16] | GI50 [17] | GI50 [18] | GI50 [19] | GI50 [20]
1 | O=C(O)c1ccc(CI)cc1 | 3.24 µM (inactive) | 21.6 µM (inactive) | 15.7 µM (inactive) | 15.4 µM (inactive) | 14.3 µM (inactive) | 7.82 µM (inactive) | 14.6 µM (inactive) | 20.3 µM (inactive) | 25 µM (inactive) | 20.8 µM (inactive) | 15.4 µM (inactive) | 18 µM (inactive) | 33.2 µM (inactive) | 20.8 µM (inactive) | 11.2 µM (inactive) | 15.3 µM (inactive) | 18 µM (inactive) | 15.1 µM (inactive) | 21.8 µM (inactive) | –
2 | Oc1cc(O)c2c(c1)OC(c1ccc(O)c(O)c1)C(OC1(c3cc(O)c(O)c(O)c3)Oc3cc(O)cc(O)c3C(O)C1O)C2 (stereo unspecified) | 25.7 µM (inactive) | 29.2 µM (inactive) | 38.4 µM (inactive) | 31.8 µM (inactive) | 19.6 µM (inactive) | 33.1 µM (inactive) | 24.8 µM (inactive) | 24 µM (inactive) | 37.6 µM (inactive) | > 34.1 µM (inactive) | 25.9 µM (inactive) | 32.1 µM (inactive) | 26.4 µM (inactive) | 21.7 µM (inactive) | 35.6 µM (inactive) | 23.5 µM (inactive) | 18 µM (inactive) | 49.7 µM (inactive) | 19.7 µM (inactive) | 26.1 µM (inactive)
3 | c1ccc2/c3[nH]/c(c2c1)=N\c1ccc(cc1)-c1nc2ccc(cc2o1)/N=c1/[nH]/c(c2ccccc12)=N/c1ccc2nc(oc2c1)-c1ccc(cc1)\N=3 | 31 µM (inactive) | 20.3 µM (inactive) | 16.6 µM (inactive) | 11.6 µM (inactive) | 37.8 µM (inactive) | 31 µM (inactive) | 26.5 µM (inactive) | 62.4 µM (inactive) | 25.2 µM (inactive) | 33.5 µM (inactive) | 15.3 µM (inactive) | 77.1 µM (inactive) | > 100 µM (inactive) | 0.422 µM (active) | 26.5 µM (inactive) | 14.9 µM (inactive) | 15.9 µM (inactive) | 29.9 µM (inactive) | 27 µM (inactive) | 35.1 µM (inactive)
4 | C=C1c2nc3ccccc3n2C=C(c2ccc(Cl)cc2)N1c1ccc(OCCN2CCOCC2)cc1 | 25.2 µM (inactive) | 12 µM (inactive) | 34.9 µM (inactive) | 18.9 µM (inactive) | 10.7 µM (inactive) | – | 22 µM (inactive) | 52.6 µM (inactive) | 21.4 µM (inactive) | > 100 µM (inactive) | 34.7 µM (inactive) | 55.3 µM (inactive) | > 100 µM (inactive) | 7.91 µM (inactive) | 37.2 µM (inactive) | – | 33.4 µM (inactive) | 10.5 µM (inactive) | 62.4 µM (inactive) | 11.4 µM (inactive)
5 | Cc1nnc(CC#N)n1NC(=O)CC#N | > 100 µM (inactive) | > 100 µM (inactive) | > 100 µM (inactive) | > 100 µM (inactive) | > 100 µM (inactive) | > 100 µM (inactive) | > 100 µM (inactive) | > 100 µM (inactive) | > 100 µM (inactive) | > 100 µM (inactive) | > 100 µM (inactive) | > 100 µM (inactive) | > 100 µM (inactive) | > 100 µM (inactive) | > 100 µM (inactive) | > 100 µM (inactive) | > 100 µM (inactive) | > 100 µM (inactive) | > 100 µM (inactive) | > 100 µM (inactive)
6 | O=C(O)CN1C(=O)c2ccc(NC(=O)C(=O)O)cc2S1(=O)=O | > 100 µM (inactive) | > 100 µM (inactive) | > 100 µM (inactive) | > 100 µM (inactive) | > 100 µM (inactive) | > 100 µM (inactive) | > 100 µM (inactive) | > 100 µM (inactive) | > 100 µM (inactive) | > 100 µM (inactive) | > 100 µM (inactive) | – | – | > 100 µM (inactive) | – | > 100 µM (inactive) | 89.7 µM (inactive) | > 100 µM (inactive) | > 100 µM (inactive) | > 100 µM (inactive)
7 | Cc1cc(O)c2c3c(ccc2c1)C(=O)c1c(O)cccc1C3=O [TETRANGULOL] | 7.46 µM (inactive) | 1.36 µM (inactive) | 17.7 µM (inactive) | 3.25 µM (inactive) | 3.3 µM (inactive) | 17.4 µM (inactive) | – | 16.3 µM (inactive) | 5.14 µM (inactive) | > 100 µM (inactive) | 5.66 µM (inactive) | 7.64 µM (inactive) | – | 0.692 µM (active) | 0.397 µM (active) | 5.48 µM (inactive) | > 100 µM (inactive) | 16.1 µM (inactive) | 17.5 µM (inactive) | 3.88 µM (inactive)
8 | C=CCN1C[C@H](C)N([C@H](c2ccc(C(=O)N(CC)CCO)cc2)c2cccc(OC)c2)C[C@H]1C | > 100 µM (inactive) | 51.3 µM (inactive) | > 100 µM (inactive) | 43.5 µM (inactive) | 92.9 µM (inactive) | > 100 µM (inactive) | > 100 µM (inactive) | > 100 µM (inactive) | 38.5 µM (inactive) | 76.6 µM (inactive) | > 100 µM (inactive) | > 100 µM (inactive) | – | > 100 µM (inactive) | 12.3 µM (inactive) | 51.5 µM (inactive) | > 100 µM (inactive) | 38.6 µM (inactive) | > 100 µM (inactive) | > 100 µM (inactive)
9 | O=C(C=P(c1ccccc1)(c1ccccc1)c1ccccc1)C12CC3CC(CC(C3)C1)C2 | 17.3 µM (inactive) | 55 µM (inactive) | 16.2 µM (inactive) | 11.9 µM (inactive) | 17 µM (inactive) | – | 16.1 µM (inactive) | 17.2 µM (inactive) | 16.1 µM (inactive) | 18.8 µM (inactive) | 20.8 µM (inactive) | 20 µM (inactive) | 16.9 µM (inactive) | 8.75 µM (inactive) | 14.9 µM (inactive) | – | 14.6 µM (inactive) | 11.7 µM (inactive) | 15.7 µM (inactive) | 15 µM (inactive)
10 | CCCCOCOc1ccccc1P1(=O)COc2ccccc2OC1 | > 100 µM (inactive) | 37.1 µM (inactive) | 86.7 µM (inactive) | 63 µM (inactive) | 75 µM (inactive) | 60.5 µM (inactive) | > 100 µM (inactive) | > 100 µM (inactive) | 45.4 µM (inactive) | – | > 100 µM (inactive) | > 100 µM (inactive) | > 100 µM (inactive) | 34.7 µM (inactive) | 68.7 µM (inactive) | – | 38.7 µM (inactive) | 55.3 µM (inactive) | 43.4 µM (inactive) | > 100 µM (inactive)
11 | Cn1c(=O)c2c(nc3n(Cc4ccccc4)c(=O)c(NCCCBr)cn23)n(C)c1=O | 23.9 µM (inactive) | 23 µM (inactive) | 32.6 µM (inactive) | > 100 µM (inactive) | > 100 µM (inactive) | 31.8 µM (inactive) | > 100 µM (inactive) | 26.5 µM (inactive) | > 100 µM (inactive) | > 100 µM (inactive) | 41.2 µM (inactive) | – | 24.8 µM (inactive) | > 100 µM (inactive) | > 100 µM (inactive) | 19.2 µM (inactive) | > 100 µM (inactive) | > 100 µM (inactive) | 64.9 µM (inactive) | > 100 µM (inactive)
12 | O=C(O)CN1CCN2CCOCCOCCN(CC1)CCN(CC(=O)O)CC2 | > 100 µM (inactive) | > 100 µM (inactive) | > 100 µM (inactive) | > 100 µM (inactive) | > 100 µM (inactive) | > 100 µM (inactive) | > 100 µM (inactive) | > 100 µM (inactive) | > 100 µM (inactive) | > 100 µM (inactive) | – | > 100 µM (inactive) | > 100 µM (inactive) | – | > 100 µM (inactive) | – | > 100 µM (inactive) | > 100 µM (inactive) | > 100 µM (inactive) | > 100 µM (inactive)
13 | CC(=O)OCC1OC(SC2=N/C(=C\c3cc4c(=O)c5ccccc5sc4s3)C(=O)N2c2ccccc2)C(OC(C)=O)C(OC(C)=O)C1OC(C)=O (stereo unspecified) | > 100 µM (inactive) | 42.2 µM (inactive) | > 100 µM (inactive) | > 100 µM (inactive) | 78.7 µM (inactive) | > 100 µM (inactive) | 67.8 µM (inactive) | > 100 µM (inactive) | > 100 µM (inactive) | > 100 µM (inactive) | > 100 µM (inactive) | – | 65.8 µM (inactive) | 20.1 µM (inactive) | > 100 µM (inactive) | 20.6 µM (inactive) | > 100 µM (inactive) | > 100 µM (inactive) | 58.2 µM (inactive) | > 100 µM (inactive)
14 | CSCCC(NCc1c(O)ccc2c(-c3ccccc3)cc(=O)oc12)C(=O)O (stereo unspecified) | > 100 µM (inactive) | > 100 µM (inactive) | > 100 µM (inactive) | > 100 µM (inactive) | > 100 µM (inactive) | > 100 µM (inactive) | > 100 µM (inactive) | > 100 µM (inactive) | > 100 µM (inactive) | – | > 100 µM (inactive) | > 100 µM (inactive) | > 100 µM (inactive) | > 100 µM (inactive) | > 100 µM (inactive) | > 100 µM (inactive) | > 100 µM (inactive) | > 100 µM (inactive) | > 100 µM (inactive) | > 100 µM (inactive)
